Laboratory results taken from patent publication US4939163A, “Anticonvulsant agents” (Eli Lilly and Company, priority 1989, dated 1990).

Tested on: tonic extensor seizures elicited by maximal electroshock
Assay: electroshock induced convulsion inhibition assay (E.S.)
Assay type: in vivo, Cox standard strain albino male mice
Details: mouse, oral dose (gavage), 0.1 second 50 milliampere corneal electroshock, inhibition of extensor tonic convulsions, at time of optimal response
Protocol: In the electroshock induced convulsion inhibition assay (E.S.), the compound to be tested was suspended in acacia and administered by gavage to each of ten Cox standard strain albino male mice (18-24 g) at the dose level being investigated. […] The animals were examined and evaluated immediately after the electroshock for the occurrence of clonic, flexor tonic, or extensor tonic convulsions, or death and the ED50 was determined for each compound as the dose which inhibited the occurrence of extensor tonic convulsions in one half of the animals immediately after the electroshock. For comparison, 18 milliamperes was usually sufficient to produce extensor tonic convulsions in about half of the control animals; at 50 milliamperes, almost all control animals (receiving vehicle only) died. The test results summarized in Table I are reported as the ED50 values at the time interval found to provide an optimal response after dosing.

`CCCN(C)c1ccc(C(=O)Nc2c(C)cccc2C)cc1` [Example 9, N-(2,6-dimethylphenyl)-4-(methylpropylamino)benzamide] and `Cc1cccc(C)c1NC(=O)c1ccc(N(C)C)cc1` [Example 6, 4-(Dimethylamino)-N-(2,6-dimethylphenyl)benzamide] are within 1.5-fold of each other in ED50: 4.6 mg/kg for the first, 3.65 mg/kg for the second.

First: Cc1cccc(C)c1NC(=O)c1ccc(S(C)(=O)=O)cc1 [Example 14, N-(2,6-dimethylphenyl)-4-(methylsulfonyl)benzamide]
Second: Cc1ccc(C(=O)Nc2c(C)cccc2C)cc1 [Example 3, N-(2,6-dimethylphenyl)-4-methylbenzamide]
The ED50 of the first is 18-fold lower: 14 mg/kg for the first, ~250 mg/kg for the second.

Compared with `Cc1cccc(C)c1NC(=O)c1ccc(C(F)(F)F)cc1` [Example 1, N-(2,6-dimethylphenyl)-4-(trifluoromethyl)benzamide], `Cc1cccc(C)c1NC(=O)c1ccc(O)cc1` [Example 15, N-(2,6-dimethylphenyl)-4-hydroxybenzamide] is 20-fold lower in ED50: ~225 mg/kg for the first, 11.2 mg/kg for the second.

`CCNc1ccc(C(=O)Nc2c(C)cccc2C)cc1` [Example 7, N-(2,6-dimethylphenyl)-4-(ethylamino)benzamide] and `CNc1ccc(C(=O)Nc2c(C)cccc2C)cc1` [Example 8, N-(2,6-dimethylphenyl)-4-(methylamino)benzamide] are within 1.5-fold of each other in ED50: 2.45 mg/kg for the first, 2 mg/kg for the second.

`Cc1cccc(C)c1NC(=O)c1ccc(C#N)cc1` [Example 2, 4-Cyano-N-(2,6-dimethylphenyl)benzamide] and `COc1ccc(C(=O)Nc2c(C)cccc2C)cc1` [Example 4, N-(2,6-dimethylphenyl)-4-methoxybenzamide] are within 1.5-fold of each other in ED50: 13.2 mg/kg for the first, 15 mg/kg for the second.

Compared with `Cc1cccc(C)c1NC(=O)c1ccc(CN)cc1.Cl` [Example 11, 4-(Aminomethyl)-N-(2,6-dimethylphenyl)benzamide hydrochloride], `Cc1cccc(C)c1NC(=O)c1ccc(C(N)=O)cc1` [Example 12, N-(2,6-Dimethylphenyl)-1,4-benzenedicarboxamide] is 2-fold higher in ED50: 38 mg/kg for the first, ~75 mg/kg for the second.

First: Cc1cccc(C)c1NC(=O)c1ccc([S+](C)[O-])cc1 (stereo not shown) [Example 13, N-(2,6-dimethylphenyl)-4-(methylsulfinyl)benzamide]
Second: CSc1ccc(C(=O)Nc2c(C)cccc2C)cc1 [Example 5, N-(2 6-dimethylphenyl)-4-(methylthio)benzamide]
The ED50 of the first is 5.8-fold lower: 13 mg/kg for the first, ~75 mg/kg for the second.

Compound `Cc1cccc(C)c1NC(=O)c1ccc(-n2ccnc2)cc1.Cl` [Example 10, N-(2,6-dimethylphenyl)-4-(1H-imidazol-1-yl)benzamide hydrochloride] has an ED50 of ~50 mg/kg.

Tested on: seizures in man
Assay: not given
Details: Gilman, Goodman, and Gilman, 6th Ed., p. 455; cited from earlier work

For `O=C1NC(=O)C(c2ccccc2)(c2ccccc2)N1` [phenytoin], the “plasma level at which seizures are controlled” value is listed as ≥ 10 µg/mL.
